{"source": "patent US20250123267A1", "about": "“INHIBITORS OF MICROTUBULE POLYGLUTAMYLATION IN MITOSIS FOR USE AS A MEDICAMENT” (FUNDACIÓ CENTRE DE REGULACIÓ GENÒMICA, priority 2021, published 2025)", "assay_type_in_all_cases": "in vivo, Danio rerio", "key": {"[1]": {"tested_on": "zebrafish embryos", "experiment": "Embryonic lethality of morpholino injected zebrafish embryos", "details": "first 4 hours of development", "experimental": "(§1) Morpholino antisense oligonucleotides were designed and purchased from Gene Tools, LLC. To inhibit ttll11 we used a blocking translation SEQ ID NO: 22 MO ([…]) and a standard control SEQ ID NO: 23 MO ([…]) as a negative control. We injected 2.8 ng of morpholino into one-cell stage embryos.\n(§2) All capped mRNAs were synthesized using mMessage mMachine SP6 (Ambion, AM1340M). For the rescue experiments, […] of ttll11 mRNA was injected together with the indicated MO. […] of E466G mRNA (ttll11 mutated version) was injected together with the indicated MO as a negative control of the rescue experiments. GFP-Ttll11 mRNA was injected into one-cell stage embryos to visualize protein localization."}, "[2]": {"tested_on": "zebrafish embryos", "experiment": "Chromosome segregation in blastula stage zebrafish embryos (live and fixed imaging)", "experimental": "as §1\nZebrafish embryos at the sphere stage (2.5-4 hpf) were dechorionated and incubated overnight at RT shacking in the microtubule fixative solution (20). The MT-fixative was discarded, and the embryos were put in methanol at −20° C. overnight. After fixation was completed zebrafish embryos were transferred in a clean tube and washed 3 times during 5 min with tergitol at room temperature for rehydration. Embryos were then moved to a well of a 96-well plate and an overnight wash with the anti-autofluorescence buffer (PBS 1×, 100 mM NaBH4) was performed at RT gently shacking. Buffer in the well was changed with TBS 1× for 5 extensive washes.\nEmbryos underwent the blocking step with TBS 1× with 2% BSA for 30 minutes RT gently shacking. Anti-polyE (1.1 μg/ml, home-made) and -β-tubulin (clone E7; Hybridoma Bank at University of Iowa) primary antibodies were added both at 1:200 dilution and left ON at 4° C. gently shacking. […]\nFixed embryos were imaged in glass bottom Mattek dishes using a 63× oil-immersion 1.4 NA objective on a TCS SP5 inverted Leica confocal microscope. Laser intensity used changed through experiments according to the tubulin levels detected.\nFor zfTTLL11 localization experiments zebrafish eggs were fertilized, collected and microinjected with zfTTLL11 mRNA with a micromanipulator (M3301R, WPI (World precision instruments). The quantity injected are relative to the ones specified in “Morpholinos, mRNA synthesis and microinjection” section, according to de experiment. Embryos at sphere stage were manually dechorionated and moved in a tube containing low melting agarose at 42° C. diluted in TBS 1× and immediately in a Mattek dish with 7 mm diameter glass bottom and oriented with epithelial layer cells toward the glass slide before the agarose solidified. […]"}, "[3]": {"tested_on": "zebrafish embryos", "experiment": "Morphological zebrafish analysis at 36 hpf after morpholino injection", "experimental": "as §1, §2\nZebrafish embryos at 36 hpf were anaesthetized with tricaine methane sulfonate (MS-222, Sigma Aldrich) The morphological phenotype was evaluated on site with an Olympus SZX16 scope equipped with an Olympus DP73 camera. Representative images were analyzed with ImageJ."}, "[4]": {"details": "36 hpf, injected at one-cell stage"}}, "data": [{"substance": "MO-1: blocking translation morpholino against zebrafish ttll11, SEQ ID NO: 22 (CGGCTGATTTGTTATCTCATCTAGG) (all phosphorodiamidate morpholino (PMO))", "values": [{"measurement": "embryonic lethality", "setting": "[1]", "value": "increase of embryonic lethality"}, {"measurement": "embryos with at least one anaphase cell with a lagging chromosome", "setting": "[2]; blastula stage, 4D time-lapse imaging", "value": "Most"}, {"measurement": "chromosome segregation fidelity in fixed embryos", "setting": "[2]; fixed embryos, anaphase cells with lagging chromosomes", "value": "compromised"}, {"measurement": "cells with micronuclei", "setting": "[2]; injected embryos", "value": "many cells with micronuclei"}, {"measurement": "phenotype Frequency Mild (%)", "setting": "[3]; [4]", "value": 28.6, "unit": "%"}, {"measurement": "phenotype Frequency Normal (%)", "setting": "[3]; [4]", "value": 14.3, "unit": "%"}, {"measurement": "phenotype Frequency Severe (%)", "setting": "[3]; [4]", "value": 57.1, "unit": "%"}, {"measurement": "embryos with developmental defects", "setting": "[3]; injected embryos, mild tilted tails to gross abnormalities", "value": 60, "unit": "%"}]}]}
